Reference: patent US9624170B2, “4-(piperrazin-1-yl)-pyrrolidin-2-one compounds as monoacylglycerol lipase (MAGL) inhibitors” (TAKEDA PHARMACEUTICAL COMPANY LIMITED, priority 2013, dated 2017)

Biological target: T1, human MAGL (His-hMAGL) (Homo sapiens, UniProt Q99685)
T1 construct: made in house; host or cells: Escherichia coli BL21(DE3)
T1 sequence (Q99685 1-303): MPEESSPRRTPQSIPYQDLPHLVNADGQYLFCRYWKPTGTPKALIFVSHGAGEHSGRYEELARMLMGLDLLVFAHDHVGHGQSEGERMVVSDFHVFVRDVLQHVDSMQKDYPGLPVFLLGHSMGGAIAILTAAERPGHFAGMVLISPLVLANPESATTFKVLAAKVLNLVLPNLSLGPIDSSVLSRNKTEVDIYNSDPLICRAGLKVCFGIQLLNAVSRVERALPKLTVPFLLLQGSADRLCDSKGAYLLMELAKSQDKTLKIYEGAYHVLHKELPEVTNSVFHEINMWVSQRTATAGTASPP
Experiment: Measurement of MAGL inhibitory activity by mass spectrometry
Type: biochemical
Settings: 10 μM test compound; substrate 2-arachidonylglycerol, arachidonic acid by RapidFire-mass spectrometry
Procedure: Thereafter, to each well was added 150 μM 2-arachidonylglycerol (Tocris Bioscience) by 5 μL, and the mixture was incubated at room temperature for 10 min. Then, 2% formic acid (Wako Pure Chemical Industries, Ltd.) was added by 10 μL to discontinue the reaction. Furthermore, acetonitrile (50 μL) containing 3 μM arachidonic acid-d8 (Cayman Chemical Company) was added and the mixture was stirred. The amount of arachidonic acid in the obtained enzyme reaction mixture was calculated by measuring by RapidFire-mass spectrometry and correcting by the amount of arachidonic acid-d8. High Throughput online solid phase extraction was performed using RapidFire 300TM system (Agilent Technologies, Inc.). […] The injection needle was washed with ultrapure water (500 millisecond) and acetonitrile (500 millisecond) to minimize carry-over. […] The RapidFire300 system was controlled by RapidFire UI software version 3.6 (Agilent Technologies, Inc.). The mass spectrometry of the resultant product was performed using […] triple quadrupole mass spectrometer (AB SCIEX) equipped with an electrospray ion sauce (Turbolon SprayTM) in a negative selected reaction monitoring (SRM) mode. The conditions of SRM are shown below. The parameters of the instrument were optimized as follows: capillary temperature 600° C., ion spray voltage -4.5 kV, collision gas 8, curtain gas 15 psi, ion source gas 1 60 psi, ion source gas 2 60 psi. The mass spectrometer was controlled by AnalystTM software version 1.5.1 (AB SCIEX). The peak area integration was analyzed using RapidFire integrator software version 3.6 (Agilent Technologies, Inc.). MAGL inhibitory rate (%) was calculated according to the following calculation formula.

inhibition at 10 µM [%] | SMILES
102 | Cc1ccc(-c2cccc(N3CC(N4CCN(C(=O)c5nccs5)CC4)CC3=O)c2)cc1 (centres unmarked) [Example 90, 1-(4′-methylbiphenyl-3-yl)-4-(4-(1,3-thiazol-2-ylcarbonyl)piperazin-1-yl)pyrrolidin-2-one]
102 | Cc1cccc(-c2cccc(N3CC(N4CCN(C(=O)c5nccs5)CC4)CC3=O)c2)c1 (centres unmarked) [Example 91, 1-(3′-methylbiphenyl-3-yl)-4-(4-(1,3-thiazol-2-ylcarbonyl)piperazin-1-yl)pyrrolidin-2-one]
101 | O=C(c1nccs1)N1CCN(C2CC(=O)N(c3cccc(-c4cccs4)c3)C2)CC1 (centres unmarked) [Example 93, 4-(4-(1,3-thiazol-2-ylcarbonyl)piperazin-1-yl)-1-(3-(2-thienyl)phenyl)pyrrolidin-2-one]
99 | O=C(c1nccs1)N1CCN(C2CC(=O)N(c3cccc(-c4ccsc4)c3)C2)CC1 (centres unmarked) [Example 94, 4-(4-(1,3-thiazol-2-ylcarbonyl)piperazin-1-yl)-1-(3-(3-thienyl)phenyl)pyrrolidin-2-one]
99 | CC(=O)Nc1cccc(-c2cccc(N3CC(N4CCN(C(=O)c5nccs5)CC4)CC3=O)c2)c1 (centres unmarked) [Example 95, N-(3′-(2-oxo-4-(4-(1,3-thiazol-2-ylcarbonyl)piperazin-1-yl)pyrrolidin-1-yl)biphenyl-3-yl)acetarnide]
99 | O=C(c1nccs1)N1CCN(C2CC(=O)N(c3cccc(-c4ccoc4)c3)C2)CC1 (centres unmarked) [Example 96, 1-(3-(3-furyl)phenyl)-4-(4-(1,3-thiazol-2-ylcarbonyl)piperazin-1-yl)pyrrolidin-2-one]
97 | CC(=O)Nc1ccc(-c2cccc(N3CC(N4CCN(C(=O)c5nccs5)CC4)CC3=O)c2)cc1 (centres unmarked) [Example 97, N-(3′-(2-oxo-4-(4-(1,3-thiazol-2-ylcarbonyl)piperazin-1-yl)pyrrolidin-1-yl)biphenyl-4-yl)acetarnide]
100 | NC(=O)c1cccc(-c2cccc(N3CC(N4CCN(C(=O)c5nccs5)CC4)CC3=O)c2)c1 (centres unmarked) [Example 98, 3′-(2-oxo-4-(4-(1,3-thiazol-2-ylcarbonyl)piperazin-1-yl)pyrrolidin-1-yl)biphenyl-3-carboxamide]
102 | O=C(c1nccs1)N1CCN(C2CC(=O)N(c3cccc(Cc4ccccc4)c3)C2)CC1 (centres unmarked) [Example 99, 1-(3-benzylphenyl)-4-(4-(1,3-thiazol-2-ylcarbonyl)piperazin-1-yl)pyrrolidin-2-one]
101 | CS(=O)(=O)Nc1cccc(-c2cccc(N3CC(N4CCN(C(=O)c5nccs5)CC4)CC3=O)c2)c1 (centres unmarked) [Example 100, N-(3′-(2-oxo-4-(4-(1,3-thiazol-2-ylcarbonyl)piperazin-1-yl)pyrrolidin-1-yl)biphenyl-3-yl)methanesulfonamide]
99 | Cn1nccc1-c1cccc(N2CC(N3CCN(C(=O)c4nccs4)CC3)CC2=O)c1 (centres unmarked) [Example 101, 1-(3-(1-methyl-1H-pyrazol-5-yl)phenyl)-4-(4-(1,3-thiazol-2-ylcarbonyl)piperazin-1-yl)pyrrolidin-2-one]
96 | NS(=O)(=O)c1ccc(-c2cccc(N3CC(N4CCN(C(=O)c5nccs5)CC4)CC3=O)c2)cc1 (centres unmarked) [Example 102, 3′-(2-oxo-4-(4-(1,3-thiazol-2-ylcarbonyl)piperazin-1-yl)pyrrolidin-1-yl)biphenyl-4-sulfonamide]
100 | NS(=O)(=O)c1cccc(-c2cccc(N3CC(N4CCN(C(=O)c5nccs5)CC4)CC3=O)c2)c1 (centres unmarked) [Example 103, 3′-(2-oxo-4-(4-(1,3-thiazol-2-ylcarbonyl)piperazin-1-yl)pyrrolidin-1-yl)biphenyl-3-sulfonamide]
95 | CNC(=O)c1ccc(-c2cccc(N3CC(N4CCN(C(=O)c5nccs5)CC4)CC3=O)c2)cc1 (centres unmarked) [Example 104, N-methyl-3′-(2-oxo-4-(4-(1,3-thiazol-2-ylcarbonyl)piperazin-1-yl)pyrrolidin-1-yl)biphenyl-4-carboxamide]
